In PMC9138505, “Small Molecule 20S Proteasome Enhancer Regulates MYC Protein Stability and Exhibits Antitumor Activity in Multiple Myeloma” (Biomedicines, 2022):
Where “and” joins values, the source holds several entries; their conditions need not be identical. Equal values may be shown once.

Test system: RPMI-8226 cells
Assay: Gene expression profiling, NanoString nCounter PanCancer Pathways Panel, ROSALIND analysis
Type: cell-based, human
Conditions: RPMI-8226, TCH-165 samples 1-3
Procedure: RPMI-8226 cells were treated with vehicle or TCH-165 (10 μM) for 4 h. Total RNA was obtained using the mirVana miRNA Isolation Kit, with phenol (Thermofisher Scientific; AM1560; Waltham, MA, USA). Total RNA was quantified by Qubit (Thermofisher Scientific; Q32855; Waltham, MA, USA). and gene expression was evaluated against the nCounter® PanCancer Pathways Panel^TM according to the standard NanoString protocol.
Data were analyzed by ROSALIND® [36] with a hyperscale architecture developed by ROSALIND, Inc. (San Diego, CA, USA). Normalization, fold changes and p-values were calculated using criteria provided by NanoString. ROSALIND follows the nCounter® Advanced Analysis protocol of dividing counts within a lane by the geometric mean of the normalizer probes from the same lane. Housekeeping probes to be used for normalization are selected based on the geNorm algorithm, as implemented in the NormqPCR R library. Fold changes and p-values are calculated using the fast method as described in the nCounter Advanced Analysis 2.0 User Manual. The p-value adjustment is performed using the Benjamini–Hochberg method of estimating false discovery rates (FDR). Clustering of genes for the final heatmap of differentially expressed genes was done using the PAM (Partitioning Around Medoids) method using the fpc R library. Hypergeometric distribution was used to analyze the enrichment of pathways, gene ontology, domain structure and other ontologies. The topGO R library was used to determine local similarities and dependencies between GO terms in order to perform Elim pruning correction. Several database sources were referenced for enrichment analysis, including Interpro [40], NCBI [41], MSigDB [42, 43], REACTOME [44], WikiPathways. Enrichment was calculated relative to a set of background genes relevant to the experiment.

In the case of `CCOC(=O)[C@]1(c2ccccc2)N=C(c2ccc(OC)cc2)N(Cc2ccccc2)[C@@H]1c1ccc(NCc2ccccc2)cc1` [TCH-165], the “HRAS normalized gene expression” value is reported as 7.087 and 7.184 and 7.0682, the “HSP90B1 normalized gene expression” value is reported as 11.9809 and 12.0196 and 12.0083 and the “HSPA1A normalized gene expression” value is reported as 6.793 and 6.667 and 6.528. The “HSPA2 normalized gene expression” value was 5.259 and 4.962 and 5.39, the “HSPA6 normalized gene expression” value was 8.169 and 8.132 and 8.184 and the “HSPB1 normalized gene expression” value was 10.6744 and 10.4282 and 10.4272. For the same compound, the “IBSP normalized gene expression” value was 4.101 and 4.427 and 3.5707, the “ID1 normalized gene expression” value was 7.234 and 7.077 and 7.39 and the “ID2 normalized gene expression” value was 8.252 and 8.085 and 8.156. For the same compound, the “ID4 normalized gene expression” value was 5.308 and 4.962 and 4.5707, the “IDH1 normalized gene expression” value was 8.037 and 7.944 and 8.087 and the “IDH2 normalized gene expression” value was 10.7214 and 10.6097 and 10.5399. The “IFNA2 normalized gene expression” value was 4.793 and 5.029 and 4.876, the “IFNA7 normalized gene expression” value was 4.208 and 3.891 and 3.653 and the “IFNA17 normalized gene expression” value was 5.445 and 5.817 and 5.712. The “IFNG normalized gene expression” value was 4.723 and 3.739 and 3.731, the “IGF1R normalized gene expression” value was 9.24 and 9.089 and 9.141 and the “IGF1 normalized gene expression” value was 5.686 and 5.427 and 5.0682. The “IGFBP3 normalized gene expression” value was 11.5972 and 11.5942 and 11.578, the “IKBKB normalized gene expression” value was 7.271 and 7.249 and 6.85 and the “IKBKG normalized gene expression” value was 8.189 and 8.037 and 8.156. The “IL1A normalized gene expression” value was 4.208 and 4.154 and 4.0682, the “IL1B normalized gene expression” value was 5.044 and 4.427 and 4.805 and the “IL1R1 normalized gene expression” value was 4.723 and 4.27 and 4.1271. For the same compound, the “IL1RAP normalized gene expression” value was 6.044 and 5.927 and 6.0682, the “IL2RA normalized gene expression” value was 4.571 and 4.27 and 4.291 and the “IL2RB normalized gene expression” value was 4.101 and 3.891 and 4.437. The “IL3RA normalized gene expression” value was 6.378 and 6.614 and 6.197, the “IL3 normalized gene expression” value was 5.61 and 4.996 and 5.211 and the “IL5RA normalized gene expression” value was 6.182 and 6.2133 and 6.211. For the same compound, the “IL6R normalized gene expression” value was 6.156 and 6.045 and 5.926, the “IL6 normalized gene expression” value was 4.308 and 3.476 and 3.0682 and the “IL7R normalized gene expression” value was 4.571 and 4.569 and 4.528. The “IL7 normalized gene expression” value was 4.101 and 4.739 and 4.805, the “IL10 normalized gene expression” value was 5.892 and 6.27 and 6.238 and the “IL11RA normalized gene expression” value was 4.649 and 4.476 and 3.291. The “IL11 normalized gene expression” value was 4.208 and 4.324 and 4.341, the “IL12A normalized gene expression” value was 2.986 and 2.739 and 2.943 and the “IL12B normalized gene expression” value was 4.86 and 4.657 and 4.613. For the same compound, the “IL12RB2 normalized gene expression” value was 4.401 and 3.476 and 3.39, the “IL13RA2 normalized gene expression” value was 3.86 and 3.962 and 3.39 and the “IL13 normalized gene expression” value was 3.986 and 4.699 and 4.653. The “IL15 normalized gene expression” value was 3.986 and 3.962 and 4.0682, the “IL19 normalized gene expression” value was 5.044 and 4.855 and 5.0068 and the “IL20RA normalized gene expression” value was 4.101 and 3.739 and 4.0682. For the same compound, the “IL20RB normalized gene expression” value was 5.892 and 5.836 and 5.613, the “IL23A normalized gene expression” value was 6.355 and 5.979 and 6.038 and the “IL24 normalized gene expression” value was 4.208 and 5.427 and 4.876. For the same compound, the “INHBA normalized gene expression” value was 4.793 and 4.569 and 4.0682, the “INHBB normalized gene expression” value was 5.53 and 5.927 and 5.75 and the “IRAK2 normalized gene expression” value was 5.892 and 5.524 and 5.893. For the same compound, the “IRAK3 normalized gene expression” value was 5.156 and 5.029 and 4.805, the “IRS1 normalized gene expression” value was 5.308 and 4.996 and 4.805 and the “ITGA2 normalized gene expression” value was 3.723 and 3.657 and 3.731. The “ITGA3 normalized gene expression” value was 7.115 and 6.979 and 6.693, the “ITGA6 normalized gene expression” value was 5.259 and 5.242 and 4.653 and the “ITGA7 normalized gene expression” value was 4.208 and 4.154 and 4.943. The “ITGA8 normalized gene expression” value was 5.488 and 4.891 and 5.098, the “ITGA9 normalized gene expression” value was 4.86 and 4.996 and 4.437 and the “ITGB3 normalized gene expression” value was 3.401 and 2.739 and 3.731. The “ITGB4 normalized gene expression” value was 5.308 and 5.184 and 5.0682, the “ITGB6 normalized gene expression” value was 5.571 and 5.2133 and 5.291 and the “ITGB7 normalized gene expression” value was 14.1153 and 14.105 and 14.0545. For the same compound, the “ITGB8 normalized gene expression” value was 6.445 and 6.452 and 6.602, the “JAG1 normalized gene expression” value was 8.08 and 7.864 and 7.85 and the “JAG2 normalized gene expression” value was 7.169 and 7.476 and 7.455. For the same compound, the “JAK1 normalized gene expression” value was 9.467 and 9.41 and 9.414, the “JAK2 normalized gene expression” value was 6.331 and 6.311 and 6.4021 and the “JUN normalized gene expression” value was 8.667 and 8.646 and 8.78. The “KAT2B normalized gene expression” value was 7.955 and 8.18 and 8.102, the “KDM5C normalized gene expression” value was 9.094 and 8.985 and 8.924 and the “KDM6A normalized gene expression” value was 4.401 and 4.029 and 3.943. For the same compound, the “KIT normalized gene expression” value was 5.101 and 4.739 and 4.528, the “KITLG normalized gene expression” value was 4.649 and 4.739 and 4.5707 and the “KLF4 normalized gene expression” value was 4.308 and 4.996 and 4.769. The “KMT2D normalized gene expression” value was 8.115 and 8.314 and 8.228, the “KRAS normalized gene expression” value was 11.0766 and 10.9767 and 10.9365 and the “LAMA3 normalized gene expression” value was 5.308 and 5.324 and 5.1271. The “LAMA5 normalized gene expression” value was 5.986 and 5.739 and 5.693, the “LAMB3 normalized gene expression” value was 6.234 and 6.169 and 6.1271 and the “LAMB4 normalized gene expression” value was 4.401 and 4.029 and 3.731. The “LAMC2 normalized gene expression” value was 3.723 and 3.27 and 3.731, the “LAMC3 normalized gene expression” value was 5.649 and 4.996 and 4.693 and the “LAT normalized gene expression” value was 5.723 and 5.927 and 5.366. The “LEF1 normalized gene expression” value was 3.86 and 2.891 and 2.291, the “LEFTY1 normalized gene expression” value was 5.723 and 4.855 and 5.0068 and the “LEFTY2 normalized gene expression” value was 6.571 and 6.657 and 6.814. The “LEP normalized gene expression” value was 5.259 and 4.855 and 4.291, the “LEPR normalized gene expression” value was 6.401 and 5.817 and 6.378 and the “LFNG normalized gene expression” value was 5.758 and 5.2133 and 4.805. The “LIF normalized gene expression” value was 5.259 and 5.029 and 5.156.
